# In patent US20240376123A1, “KRAS G12D INHIBITORS AND USES THEREOF” (SUZHOU ZANRONG PHARMA LIMITED, priority 2021, published 2024):
# Test system: p-ERK in PNAC-1/HPAC cell
# Assay: Phospho-ERK 1/2 assay (Table 1)
# Type: cell-based
# Details: Homo sapiens; PNAC-1/HPAC cell, 3 hours compound incubation; read-out: p-ERK IC50
# Experimental: Allow PNAC-1/HPAC cell growth in a T75 flask in DMEM and 10% 1 fetal calf serum (FCS; Gibco), using standard tissue culture procedures until ˜80% confluency is achieved. Day 1, seed 6000 cells/well in 384 well plate and incubate at 37° C., 5% CO2. Add diluted compound by Echo 550, final DMSO is 0.5%, incubate cells at 37° C., 5% CO2 for 3 hours. Then, remove medium and fix cells with 3.7% formaldehyde in PBS (PFA) by Apricot. Wash with PBS once. Permeabilize cells with cold 100% methanol and repeat wash once with PBS once. Add Li-Cor blocking buffer to each well and incubate 1.5 hours at RT. Remove blocking buffer and add primary antibody mixture (rabbit anti pERK, mouse anti GAPDH). Incubate at 4° C. overnight. Day 2, wash with PBST (Tween-20 in PBS) with total 3 times and then add secondary antibody mixture (goat anti rabbit 800CW (1:800 dilution in the combined solution) and goat anti mouse 680RD (1:800 dilution in the combined solution)), incubate for 60 minutes at RT away from light. Repeat washing with PBST 3 times. After final wash, centrifuge plate up-side-down at 1000 rpm to remove wash solution completely from wells. Before plate scanning, clean the bottom plate surface and the Odyssey* Imager scanning bed (if applicable) with moist, lint-free tissue to avoid any obstructions during scanning. Scan plate with detection in both 700 and 800 nm channels.
row,Structure (SMILES),IC50 [nM]
1,"Fc1c(-c2cccc(Cl)c2C2CC2)nc2c3c(nc(OC[C@@]45CCCN4C[C@H](F)C5)nc13)N1C[C@@H]3CC[C@@H](N3)C1CO2 (stereo partly drawn) [Compound 23, (6R,9S)-2-(3-chloro-2-cyclopropylphenyl)-1-fluoro-12-(((2R,7aS)-2-fluorotetrahydro-1H-pyrrolizin-7a(5H)-yl)methoxy)-5a,6,7,8,9,10-hexahydro-5H-4-oxa-3,10a,11,13,14-pentaaza-6,9-methanonaphtho[1,8-ab]heptalene]",375
2,"C#Cc1c(F)ccc2cc(O)cc(-c3nc4c5c(nc(OC[C@@]67CCCN6C[C@H](F)C7)nc5c3F)N3C[C@H]5CC[C@H](N5)[C@H]3CO4)c12 [Compound 111, 5-ethynyl-6-fluoro-4-((5aS,6S,9R)-1-fluoro-12-(((2R,7aS)-2-fluorotetrahydro-1H-pyrrolizin-7a(5H)-yl)methoxy)-5a,6,7,8,9,10-hexahydro-5H-4-oxa-3,10a,11,13,14-pentaaza-6,9-methanonaphtho[1,8-ab]heptalen-2-yl)naphthalen-2-ol]",12
3,"C#Cc1c(F)ccc2cccc(-c3nc4c5c(nc(OCC6(CN7CCOCC7)CC6)nc5c3F)N3C[C@H]5CC[C@H](N5)[C@H]3CO4)c12 [Compound 40, (5aS)-2-(8-ethynyl-7-fluoronaphthalen-1-yl)-1-fluoro-12-((1-(morpholinomethyl)cyclopropyl)methoxy)-5a,6,7,8,9,10-hexahydro-5H-4-oxa-3,10a,11,13,14-pentaaza-6,9-methanonaphtho[1,8-ab]heptalene]",155
4,"Oc1cc(-c2nc3c4c(nc(OCC56CCCN5CCC6)nc4c2F)N2C[C@@H]4CC[C@@H](N4)C2CO3)c2c(Cl)cccc2c1 (stereo partly drawn) [Compound 2, 5-chloro-4-((6R,9S)-1-fluoro-12-((tetrahydro-1H-pyrrolizin-7a(5H)-yl)methoxy)-5a,6,7,8,9,10-hexahydro-5H-4-oxa-3,10a,11,13,14-pentaaza-6,9-methanonaphtho[1,8-ab]heptalen-2-yl)naphthalen-2-ol]",730
5,"Cc1cc(N)nc(-c2nc3c4c(nc(OC[C@@]56CCCN5C[C@H](F)C6)nc4c2F)N2CC4CCC(N4)[C@H]2CO3)c1C(F)(F)F (stereo in doubt) [Compound 53, 6-((5aS,6R,9S)-1-fluoro-12-(((2R,7aS)-2-fluorotetrahydro-1H-pyrrolizin-7a(5H)-yl)methoxy)-5a,6,7,8,9,10-hexahydro-5H-4-oxa-3,10a,11,13,14-pentaaza-6,9-methanonaphtho[1,8-ab]heptalen-2-yl)-4-methyl-5-(trifluoromethyl) pyridin-2-amine]",457
6,"CC(=O)c1cccc2cc(O)cc(-c3nc4c5c(nc(OC[C@@]67CCCN6C[C@H](F)C7)nc5c3F)N3C[C@H]5CC[C@H](N5)[C@H]3CO4)c12 [Compound 26, 1-(8-((5aS,6S,9R)-1-fluoro-12-(((2R,7aS)-2-fluorotetrahydro-1H-pyrrolizin-7a(5H)-yl)methoxy)-5a,6,7,8,9,10-hexahydro-5H-4-oxa-3,10a,11,13,14-pentaaza-6,9-methanonaphtho[1,8-ab]heptalen-2-yl)-6-hydroxynaphthalen-1-yl) ethan-1-one]",148
7,"C#Cc1c(F)ccc2cccc(-c3nc4c5c(nc(OCC6(CN7C8CCC7COC8)CC6)nc5c3F)N3CC5CCC(N5)[C@H]3CO4)c12 (stereo in doubt) [Compound 49, (5aS,6R,9S)-12-((1-((3-oxa-8-azabicyclo[3.2.1]octan-8-yl)methyl)cyclopropyl)methoxy)-2-(8-ethynyl-7-fluoronaphthalen-1-yl)-1-fluoro-5a,6,7,8,9,10-hexahydro-5H-4-oxa-3,10a,11,13,14-pentaaza-6,9-methanonaphtho[1,8-ab]heptalene]",851
8,"CCc1c(F)ccc2cccc(-c3nc4c5c(nc(OC[C@@]67CCCN6C[C@H](F)C7)nc5c3F)N3C[C@@H]5CC[C@@H](N5)C3CO4)c12 (stereo partly drawn) [Compound 4, (6R,9S)-2-(8-ethyl-7-fluoronaphthalen-1-yl)-1-fluoro-12-(((2R,7aS)-2-fluorotetrahydro-1H-pyrrolizin-7a(5H)-yl)methoxy)-5a,6,7,8,9,10-hexahydro-5H-4-oxa-3,10a,11,13,14-pentaaza-6,9-methanonaphtho[1,8-ab]heptalene]",121
9,"N#Cc1c(N)sc2cccc(-c3nc4c5c(nc(OC[C@@]67CCCN6C[C@H](F)C7)nc5c3F)N3C[C@@H]5CC[C@@H](N5)C3CO4)c12 (stereo partly drawn) [Compound 22, 2-amino-4-((6R,9S)-1-fluoro-12-(((2R,7aS)-2-fluorotetrahydro-1H-pyrrolizin-7a(5H)-yl)methoxy)-5a,6,7,8,9,10-hexahydro-5H-4-oxa-3,10a,11,13,14-pentaaza-6,9-methanonaphtho[1,8-ab]heptalen-2-yl)benzo[b]thiophene-3-carbonitrile]",493
10,"Oc1cc(-c2nc3c4c(nc(OC[C@@]56CCCN5C[C@H](F)C6)nc4c2F)N2C[C@H]4CC[C@H](N4)[C@H]2CO3)c2cc(F)ccc2c1 [Compound 30, 6-fluoro-4-((5aS,6S,9R)-1-fluoro-12-(((2R,7aS)-2-fluorotetrahydro-1H-pyrrolizin-7a(5H)-yl)methoxy)-5a,6,7,8,9,10-hexahydro-5H-4-oxa-3,10a,11,13,14-pentaaza-6,9-methanonaphtho[1,8-ab]heptalen-2-yl)naphthalen-2-ol]",17
11,"N#Cc1cccc2cccc(-c3nc4c5c(nc(OC[C@@]67CCCN6C[C@H](F)C7)nc5c3F)N3C[C@@H]5CC[C@@H](N5)C3CO4)c12 (stereo partly drawn) [Compound 20, 8-((6R,9S)-1-fluoro-12-(((2R,7aS)-2-fluorotetrahydro-1H-pyrrolizin-7a(5H)-yl)methoxy)-5a,6,7,8,9,10-hexahydro-5H-4-oxa-3,10a,11,13,14-pentaaza-6,9-methanonaphtho[1,8-ab]heptalen-2-yl)-1-naphthonitrile]",735
12,"Fc1c(-c2cccc3cccc(Cl)c23)nc2c3c(nc(OC[C@@]45CCCN4C[C@H](F)C5)nc13)N1C[C@@H]3CC[C@@H](N3)C1CO2 (stereo partly drawn) [Compound 12, (6R,9S)-2-(8-chloronaphthalen-1-yl)-1-fluoro-12-(((2R,7aS)-2-fluorotetrahydro-1H-pyrrolizin-7a(5H)-yl)methoxy)-5a,6,7,8,9,10-hexahydro-5H-4-oxa-3,10a,11,13,14-pentaaza-6,9-methanonaphtho[1,8-ab]heptalene]",68
13,"C#Cc1c(F)ccc2cccc(-c3nc4c5c(nc(OC[C@@H]6C[C@@H](F)CN6C)nc5c3F)N3CC5CCC(N5)[C@H]3CO4)c12 (stereo in doubt) [Compound 32, (5aS,6R,9S)-2-(8-ethynyl-7-fluoronaphthalen-1-yl)-1-fluoro-12-(((2S,4R)-4-fluoro-1-methylpyrrolidin-2-yl)methoxy)-5a,6,7,8,9,10-hexahydro-5H-4-oxa-3,10a,11,13,14-pentaaza-6,9-methanonaphtho[1,8-ab]heptalene]",140
14,"C#Cc1c(F)ccc2cccc(-c3nc4c5c(nc(OCC67CCCN6C(COC(=O)N6CCOCC6)CC7)nc5c3F)N3CC5CCC(N5)[C@H]3CO4)c12 (stereo in doubt) [Compound 47, (7a-((((5aS,6R,9S)-2-(8-ethynyl-7-fluoronaphthalen-1-yl)-1-fluoro-5a,6,7,8,9,10-hexahydro-5H-4-oxa-3,10a,11,13,14-pentaaza-6,9-methanonaphtho[1,8-ab]heptalen-12-yl)oxy)methyl)hexahydro-1H-pyrrolizin-3-yl)methyl morpholine-4-carboxylate]",105
15,"Fc1cc2cccc(F)c2c(-c2nc3c4c(nc(OC[C@@]56CCCN5C[C@H](F)C6)nc4c2F)N2C[C@@H]4CC[C@@H](N4)C2CO3)n1 (stereo partly drawn) [Compound 18, (6R,9S)-2-(3,8-difluoroisoquinolin-1-yl)-1-fluoro-12-(((2R,7aS)-2-fluorotetrahydro-1H-pyrrolizin-7a(5H)-yl)methoxy)-5a,6,7,8,9,10-hexahydro-5H-4-oxa-3,10a,11,13,14-pentaaza-6,9-methanonaphtho[1,8-ab]heptalene]",404
16,"C#Cc1c(F)ccc2cccc(-c3nc4c5c(nc(C(=O)N[C@H](C)CN(C)C)nc5c3F)N3CC5CCC(N5)[C@H]3CO4)c12 (stereo in doubt) [Compound 33, (5aS,6R,9S)—N—((R)-1-(dimethylamino)propan-2-yl)-2-(8-ethynyl-7-fluoronaphthalen-1-yl)-1-fluoro-5a,6,7,8,9,10-hexahydro-5H-4-oxa-3,10a,11,13,14-pentaaza-6,9-methanonaphtho[1,8-ab]heptalene-12-carboxamide]",75
17,"C#Cc1cccc2cc(O)cc(-c3nc4c5c(nc(OC[C@@]67CCCN6C[C@H](F)C7)nc5c3F)N3C[C@H]5CC[C@H](N5)[C@H]3CO4)c12 [Compound 31, 5-ethynyl-4-((5aS,6S,9R)-1-fluoro-12-(((2R,7aS)-2-fluorotetrahydro-1H-pyrrolizin-7a(5H)-yl)methoxy)-5a,6,7,8,9,10-hexahydro-5H-4-oxa-3,10a,11,13,14-pentaaza-6,9-methanonaphtho[1,8-ab]heptalen-2-yl)naphthalen-2-ol]",8
18,"C#Cc1c(F)ccc2cccc(-c3nc4c5c(nc(OCC6(CN7CCO[C@H](C)C7)CC6)nc5c3F)N3C[C@H]5CC[C@H](N5)[C@H]3CO4)c12 [Compound 41, (5aS)-2-(8-ethynyl-7-fluoronaphthalen-1-yl)-1-fluoro-12-((1-(((R)-2-methylmorpholino)methyl)cyclopropyl)methoxy)-5a,6,7,8,9,10-hexahydro-5H-4-oxa-3,10a,11,13,14-pentaaza-6,9-methanonaphtho[1,8-ab]heptalene]",390
